Data from US8507439B2, “Neuroprotective and neurorestorative method and compositions” (priority 2005, dated 2013).
Residues, ends and D or L forms follow the SMILES beside them. No end group written: not given here. ξ: configuration not given here. *: point of attachment. Lip = lipoic acid (N-terminal), O=C(CCCC[C@@H]1CCSS1)*; Lipoyl(6ξ) = O=C(CCCCC1CCSS1)*

Experiments:
N27 dopaminergic cells = experiment: Survival of N27 dopaminergic cells in the presence of 300 μM MPP+ neurotoxic agent; format: cell-based, rat
[1] = test system: noradrenergic neurons in the striatum; experiment: Survival of noradrenergic neurons in the MPTP mouse model for Parkinson's disease; format: in vivo
Excerpt: Tests were done in the MPTP mouse model for Parkinson's disease.

[2] = test system: SH-SY5Y human neuroblastoma cells; experiment: Protection of SH-SY5Y neuroblastoma cells from Yankner peptide (b/A4), LDH content of remaining cells; format: cell-based; details: 20 μM Yankner peptide alone
Experimental: A characteristic constituent of Alzheimer's Disease (AD) is the formation of plaques from the 39-43 amino acid long peptide derived from amyloid protein (Selkoe, D. TINS (1993) 16: 403-409). This molecule (b/A4) can be toxic to mammalian nerve cells. […] Yankner et al. (Science (1990) 250: 279-282) has developed this property in a culture method as an AD assay procedure.
Differentiated cultures of SH-SY5Y Human neuroblastoma cells were grown to a stage where the cells formed a network of neurites. […] At day 3, after removal of the supernatant and the debris from dead cells by 3 washes with saline, the cells were then lysed and their LDH content was assayed for cell survival by measuring the LDH present in the remaining cells. The results were compared to LDH present in untreated controls, that were incubated for 3 days with no peptide additives (Table 7). The assay assumes that the LDH content of healthy cells remains constant and can be used as an index of living cells. The experiments using anoxia in our previous work were in agreement with this assumption.
This experiment was performed in the method described above for Example 6, Experiment 1, except that the cells were incubated for 4 days instead of 3 to enhance the degenerative effect of the Yankner peptide. […]

SHSY cells [3] = format: cell-based, human; details: 20 μM Yankner peptide alone
Experimental: Aliquots of 3×10^5 SHSY cells were plated in each well of a 24-well microtiter plate in 1 ml of medium containing no peptides (Control=Ctrl), 20 μM Yankner peptide (Yankner), or 20 μM Yankner peptide+75 μM of DQ (SEQ ID NO:2) (Yankner+BTX). Plates were incubated at 37° C. in a 5% CO2 incubator for 3 days, then each well was washed twice with 1×PBS to remove loosely bound cells. The number of remaining cells per ml was determined by microscopy. […] Error bars denote one standard deviation. […] BTX was DQ (SEQ ID NO:2) in this experiment.

SHSY cells [4] = experiment: LDH levels in residual surviving SHSY cells after Yankner peptide; format: cell-based, human; details: Yankner peptide alone
Experimental: In a tissue culture model for Alzheimer's disease, treatment with the Yankner peptide (amyloid fragment) causes cell death within 3 days. […] By studying the time course of cell death in this culture model for Alzheimer's disease, it was determined that about 60% of the cells die within 24 hrs. When the neuroprotective/neurorestorative peptide of the invention was added to the cells at the 24 hour time point (e.g., 24 hours after the cells were contacted with the Yankner peptide), over 40% of the injured neurons that were destined to die on day 3 were rescued.
Aliquots of 3×10^5 SHSY cells were plated in each well of a 24-well microtiter plate in 1 ml of medium containing no peptides (control=Ctrl), 20 μM Yankner peptide (Yankner), 20 μM Yankner peptide+75 μM DQ peptide (SEQ ID NO:2) added at time of plating (Yankner+BTX Simultaneous), or 20 μM Yankner+75 μM BTX-639 added 24 hr post plating (Yankner+BTX 24 Hr Post). Plates were incubated at 37° C. in a 5% CO2 incubator for 3 days, then each well was washed twice with 1×PBS to remove loosely bound cells. Whole cell lysates were prepared from the remaining attached (viable) cells, and Lactate dehydrogenase (LDH) activity measured as described in methods. The results are illustrated in FIG. 2, in which each histobar represents the mean of 11 independent trials. Error bars denote one standard deviation. […]

[5] = test system: primary rat cortical cultures; experiment: Oxygen-glucose deprivation (anoxia) of primary rat cortical cultures, LDH release into extracellular medium; format: cell-based
Experimental: Peptides of the invention have been examined for neuroprotective activity in primary rat cortical cultures. […] It rescued 90-100% of the neurons that were exposed to a 3 hour oxygen-glucose deprivation (OGD).
For the tests, primary mixed neuron-glia rat cortical cultures were grown to 80-95% confluence, as previously described (Shashoua, V. E. et al., Brain Res. (2004) 1024(1-2):34-43). Their neurons were grown over a layer of glia cells and formed a network of processes. Such cultures, after a 5× wash in oxygen-free (air displaced by argon) Hanks Balanced Salt Solution (HBSS) (Shashoua, V. E. et al., Brain Res. (2004) 1024(1-2):34-43) buffer, which contained no glucose, serum, and growth factors, were transferred for 3 hrs into the Form a Scientific Anaerobic Chamber (Thermo Forma, Marietta, Ohio) (Goldberg, M. P. and Choi, D. W. J Neurosci. (1993) 13(8):3510-3524) in an atmosphere of N2, CO2 and H2 (85%, 5%, and 10%). After exposure to oxygen-glucose deprivation (OGD) the neurons, retract their processes and generate vacuoles in their perikarya. […] Large increases (about 250%) in the release of lactic acid dehydrogenase (LDH, a marker of cell injury) into the extra-cellular medium occurred. For the test of glucose-oxygen deprivation on the release of lactic acid dehydrogenase as a function of time by primary rat cortical cultures, the LDH assay of extracellular fluid (1 ml aliquots) for cultures from cells were incubated for 24 hours under normoxia conditions and were compared with cells exposed up to 4 hours of anoxia in HBSS medium followed by normoxia medium for a total period of 24 hours. LDH was measured as absorbance at 490 nm, n=6 per time point (Shashoua, V. E. et al., Brain Res. (2004) 1024(1-2):34-43) (see Table 2). Assays and detection were performed according to manufacturer's instructions using a Promega Cyto Tox 96, a nonradioactive cytotoxicity assay kit (Promega, Madison, Wis.).
For these experiments there were n=6 per assay, and a 3 hour treatment of anoxia was followed by 21 hours of normoxia reperfusion. SEQ ID NO:1 was added at 1 hour post initiation of anoxia and was also present during the 21 hours of reperfusion. […] The results for SEQ ID NO:1 as well as the results for SEQ ID NOs:3 and 4, which are shown in Tables 3 and 4 give results of LDH assay that was done on supernatant of extracellular medium.

[6] = 300 μM MPP+ + 14 μM peptide, n = 8

## C[n+]1ccc(-c2ccccc2)cc1 [MPP+, 1-methyl-4-phenylpyridinium, reference compound]
N27 dopaminergic cells; 300 μM MPP+ alone
  % Rescue after Treatment for 0 hours: 100 ± 2%
  % Rescue after Treatment for 24 hours: 0 ± 3%
  % Rescue after Treatment for 48 hours: 0 ± 4%

## CN1CC=C(c2ccccc2)CC1 [MPTP, 1-methyl-4-phenyl-1,2,3,6 tetrahydropyridine, reference compound]
[1]; 4 days following an IP injection 30 mg/Kg of MPTP, no peptide
  neurons that survive: 12.5%

## CC[C@H](C)[C@H](NC(=O)[C@H](C)NC(=O)CNC(=O)[C@H](CCCCN)NC(=O)[C@H](CC(N)=O)NC(=O)[C@H](CO)NC(=O)CN)C(=O)N[C@H](C(=O)NCC(=O)N[C@@H](CC(C)C)C(=O)N[C@@H](CCSC)C(=O)O)[C@@H](C)CC [Yankner peptide] (H-GSNKGAIIGLM-OH)
[2]; 3 days
  OD 490 nm: 0.568 OD 490 nm
[2]; 4 days
  OD 490 nm: 0.127 OD 490 nm
SHSY cells [3]
  cell death: 50%
SHSY cells [4]
  cells that die within 24 hrs: about 60%

## CC(C)[C@H](NC(=O)[C@H](CCC(=O)O)NC(=O)CCCCC1CCSS1)C(=O)N[C@@H](CC(=O)O)C(=O)N[C@@H](CC(=O)O)C(=O)N[C@@H](CC(=O)O)C(=O)N[C@@H](CCC(N)=O)C(=O)O (stereo partly drawn) [[Lip]-EVDDDQ] ({Lipoyl(6ξ)}-EVDDDQ-OH; C-terminus assumed)
[1]; concluded from the in vivo effect
  passage through the Blood-Brain Barrier (in words): can get through the Blood-Brain Barrier

## EVDDDQ [SEQ ID NO: 1]
[5]
  reversal of the effects of anoxia / neuroprotection from anoxia (in words): active in reversing the effects of anoxia
[5]; 1 ng/ml up to 10 ng/ml in the media, even after the 3 hr OGD treatment, 21 hours normoxia reperfusion
  effects of anoxia, cell morphology and LDH release (in words): all the effects of anoxia were reversed and cell morphology and LDH release returned to normal
[5]; Table 3, anoxia + 1 ng/ml
  LDH (A 490 nm): 0.33 ± .02 A 490 nm
  LDH Released % of Normoxia: 100 % of Normoxia
[5]; Table 3, anoxia + 10 ng/ml
  LDH (A 490 nm): 0.22 ± .03 A 490 nm
  LDH Released % of Normoxia: 68 % of Normoxia
[5]; Table 3, anoxia + 100 ng/ml
  LDH (A 490 nm): 0.161 ± .04 A 490 nm
  LDH Released % of Normoxia: 50 % of Normoxia
[5]; high doses
  LDH release compared with normoxia controls (in words): decreased LDH release to lower amounts than those present in normoxia controls
[5]; neurons exposed to a 3 hour oxygen-glucose deprivation (OGD)
  neurons rescued: 90-100%
N27 dopaminergic cells; 300 μM MPP+ + 14 μM (10 μg/ml) peptide, n = 8
  % Rescue after Treatment for 24 hours: 82 ± 2%
N27 dopaminergic cells; 300 μM MPP+ + 14 μM (10 μg/ml) peptide, n = 8, listed as SEQ ID NO:1
  % Rescue after Treatment for 24 hours: 82%
N27 dopaminergic cells; [6]
  % Rescue after Treatment for 0 hours: 100 ± 2%
  % Rescue after Treatment for 48 hours: 56 ± 4%

## QDDDVE
[5]
  reversal of the effects of anoxia / neuroprotection from anoxia (in words): reverse effects of anoxia

## VFTPPS
[5]
  reversal of the effects of anoxia / neuroprotection from anoxia (in words): reverse effects of anoxia

## [Ac]-QDDDVE (Ac-QDDDVE)
[5]; Table 4, anoxia + 1 ng/ml
  LDH (A 490 nm): 0.33 ± 0.02 A 490 nm
  LDH Released % of Normoxia: 100 ± 6 % of Normoxia
[5]; Table 4, anoxia + 10 ng/ml
  LDH (A 490 nm): 0.22 ± 0.04 A 490 nm
  LDH Released % of Normoxia: 67 ± 12 % of Normoxia
[5]; Table 4, anoxia + 100 ng/ml
  LDH (A 490 nm): 0.16 ± 0.05 A 490 nm
  LDH Released % of Normoxia: 48 ± 15 % of Normoxia
N27 dopaminergic cells; 42 μM peptide + 300 μM MPP+
  % Rescue per Treatment time 0 hours: 100 ± 2%
  % Rescue per Treatment time 24 hours: 42 ± 4%
  % Rescue per Treatment time 48 hours: 27 ± 3%

## [Lip]-VFTPPS (Lip-VFTPPS) [VFTPPS conjugated to lipoic acid at the N-terminal amino acid]
[5]
  reversal of the effects of anoxia / neuroprotection from anoxia (in words): promote neuroprotection from anoxia
[5]; Table 4, anoxia + 10 ng/ml
  LDH (A 490 nm): 0.56 ± 0.08 A 490 nm
  LDH Released % of Normoxia: 169 ± 24 % of Normoxia
[5]; Table 4, anoxia + 100 ng/ml
  LDH (A 490 nm): 0.37 ± 0.04 A 490 nm
  LDH Released % of Normoxia: 112 ± 12 % of Normoxia
